Laboratory results reported in ChEMBL document CHEMBL1157646, “Melanogenesis inhibitors from the desert plant Anastatica hierochuntica in B16 melanoma cells” (Bioorg Med Chem, 2010).
Activity calls are given as the source filed them. No cut-off for these calls is given here.

Experiments:
[1] = cells; settings: Mus musculus, B16-4A5, 72 h, read-out: INH
Description: Inhibition of theophylline-stimulated melanogenesis in mouse B16-4A5 cells at 3 uM after 72 hrs

[2] = cells; settings: Mus musculus, B16-4A5, 72 h, read-out: INH; remark: listed apart in the source
Description: Inhibition of theophylline-stimulated melanogenesis in mouse B16-4A5 cells at 10 uM after 72 hrs

[3] = Toxicity in mouse B16-4A5 cells assessed as inhibition of cell proliferation at 30 uM in presence of 1 mM theophylline after 72 hrs by WST8 dye reduction assay; format: cell-based
[4] = cells; settings: Mus musculus, B16-4A5, 72 h, read-out: INH; remark: listed apart in the source
Description: Inhibition of theophylline-stimulated melanogenesis in mouse B16-4A5 cells at 30 uM after 72 hrs

[5] = Inhibition of theophylline-stimulated melanogenesis in mouse B16-4A5 cells at 100 uM after 72 hrs; format: functional; settings: B16-4A5, 72 h
[6] = biological target: T1, Tyrosinase (Agaricus bisporus) (UniProt O42713); assay: Inhibition of mushroom tyrosinase assessed as inhibition of melanin production from dopachrome by autoxidation at 100 uM
T1 sequence (whole entry): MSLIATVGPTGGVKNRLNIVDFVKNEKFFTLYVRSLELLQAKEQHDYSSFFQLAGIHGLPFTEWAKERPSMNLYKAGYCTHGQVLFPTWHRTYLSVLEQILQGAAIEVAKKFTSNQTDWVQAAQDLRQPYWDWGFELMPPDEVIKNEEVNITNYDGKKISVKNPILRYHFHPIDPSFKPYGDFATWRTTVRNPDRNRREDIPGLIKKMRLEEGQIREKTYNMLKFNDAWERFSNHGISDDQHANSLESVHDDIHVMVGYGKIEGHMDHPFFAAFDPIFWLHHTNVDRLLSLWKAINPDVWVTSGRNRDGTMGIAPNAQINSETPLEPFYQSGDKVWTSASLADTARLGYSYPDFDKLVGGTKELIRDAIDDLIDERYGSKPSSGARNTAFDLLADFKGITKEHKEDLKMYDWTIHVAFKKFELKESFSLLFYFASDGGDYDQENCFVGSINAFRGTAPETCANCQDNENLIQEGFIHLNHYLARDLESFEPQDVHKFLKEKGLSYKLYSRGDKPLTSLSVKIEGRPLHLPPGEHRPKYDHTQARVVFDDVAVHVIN

[7] = cells; settings: Mus musculus, B16-4A5, 72 h, read-out: INH; remark: listed apart in the source
Description: Inhibition of theophylline-stimulated melanogenesis in mouse B16-4A5 cells at 1 uM after 72 hrs

[8] = biological target: T1, Tyrosinase (Agaricus bisporus); assay: Inhibition of mushroom tyrosinase at 3 uM
[9] = Toxicity in mouse B16-4A5 cells assessed as inhibition of cell proliferation at 10 uM in presence of 1 mM theophylline after 72 hrs by WST8 dye reduction assay; format: cell-based
[10] = biological target: T1, Tyrosinase (Agaricus bisporus); assay: Inhibition of mushroom tyrosinase at 1 uM
[11] = Toxicity in mouse B16-4A5 cells assessed as inhibition of cell proliferation at 3 uM in presence of 1 mM theophylline after 72 hrs by WST8 dye reduction assay; format: cell-based
[12] = Toxicity in mouse B16-4A5 cells assessed as inhibition of cell proliferation in presence of 1 mM theophylline after 72 hrs by WST8 dye reduction assay; format: cell-based
[13] = Toxicity in mouse B16-4A5 cells assessed as inhibition of cell proliferation at 1 uM in presence of 1 mM theophylline after 72 hrs by WST8 dye reduction assay; format: cell-based
[14] = Inhibition of theophylline-stimulated melanogenesis in mouse B16-4A5 cells at 300 uM after 72 hrs; format: functional; settings: B16-4A5, 72 h
[15] = Inhibition of theophylline-stimulated melanogenesis in mouse B16-4A5 cells at 1000 uM after 72 hrs; format: functional; settings: B16-4A5, 72 h
[16] = Effect on TRP1 mRNA expression in mouse B16-4A5 cells assessed as TRP1 mRNA/beta-actin mRNA expression ratio at 10 uM in presence of 1 mM theophylline after 72 hrs by RT-PCR; format: functional
[17] = Effect on TRP2 mRNA expression in mouse B16-4A5 cells assessed as TRP2 mRNA/beta-actin mRNA expression ratio at 10 uM in presence of 1 mM theophylline after 72 hrs by RT-PCR; format: functional
[18] = Effect on TRP1 mRNA expression in mouse B16-4A5 cells assessed as TRP1 mRNA/beta-actin mRNA expression ratio at 3 uM in presence of 1 mM theophylline after 72 hrs by RT-PCR; format: functional
[19] = Effect on TRP2 mRNA expression in mouse B16-4A5 cells assessed as TRP2 mRNA/beta-actin mRNA expression ratio at 1 uM in presence of 1 mM theophylline after 72 hrs by RT-PCR; format: functional
[20] = Effect on TRP1 mRNA expression in mouse B16-4A5 cells assessed as TRP1 mRNA/beta-actin mRNA expression ratio at 1 uM in presence of 1 mM theophylline after 72 hrs by RT-PCR; format: functional
[21] = Effect on TRP1 mRNA expression in mouse B16-4A5 cells assessed as TRP1 mRNA/beta-actin mRNA expression ratio at 30 uM in presence of 1 mM theophylline after 72 hrs by RT-PCR; format: functional
[22] = Effect on TRP2 mRNA expression in mouse B16-4A5 cells assessed as TRP2 mRNA/beta-actin mRNA expression ratio at 3 uM in presence of 1 mM theophylline after 72 hrs by RT-PCR; format: functional
[23] = Effect on TRP2 mRNA expression in mouse B16-4A5 cells assessed as TRP2 mRNA/beta-actin mRNA expression ratio at 30 uM in presence of 1 mM theophylline after 72 hrs by RT-PCR; format: functional
[24] = Effect on tyrosinase mRNA expression in mouse B16-4A5 cells assessed as tyrosinase mRNA/beta-actin mRNA expression ratio at 1 uM in presence of 1 mM theophylline after 72 hrs by RT-PCR; format: functional
[25] = Effect on tyrosinase mRNA expression in mouse B16-4A5 cells assessed as tyrosinase mRNA/beta-actin mRNA expression ratio at 3 uM in presence of 1 mM theophylline after 72 hrs by RT-PCR; format: functional
[26] = Effect on tyrosinase mRNA expression in mouse B16-4A5 cells assessed as tyrosinase mRNA/beta-actin mRNA expression ratio at 10 uM in presence of 1 mM theophylline after 72 hrs by RT-PCR; format: functional
[27] = Effect on tyrosinase mRNA expression in mouse B16-4A5 cells assessed as tyrosinase mRNA/beta-actin mRNA expression ratio at 30 uM in presence of 1 mM theophylline after 72 hrs by RT-PCR; format: functional
[28] = biological target: T2, Tyrosinase (Agaricus bisporus, UniProt O42713); assay: Inhibition of mushroom tyrosinase
T2 sequence (O42713 whole entry): T1 sequence (whole entry)

[29] = biological target: T3, Mitogen-activated protein kinase 1 and 3 (ERK2 and ERK1) (Mus musculus) (UniProt P63085+Q63844); assay: Inhibition of ERK1/2 phosphorylation in mouse B16-4A5 cells at 10 to 30 uM in presence of 1 mM theophylline after 72 hrs by immunoblot; format: cell-based
[30] = biological target: T3, Mitogen-activated protein kinase 1 and 3 (ERK2 and ERK1) (Mus musculus); assay: Inhibition of ERK1/2 phosphorylation in mouse B16-4A5 cells at 100 uM in presence of 1 mM theophylline after 72 hrs by immunoblot; format: cell-based

T3 sequence (P63085 whole entry, looked up): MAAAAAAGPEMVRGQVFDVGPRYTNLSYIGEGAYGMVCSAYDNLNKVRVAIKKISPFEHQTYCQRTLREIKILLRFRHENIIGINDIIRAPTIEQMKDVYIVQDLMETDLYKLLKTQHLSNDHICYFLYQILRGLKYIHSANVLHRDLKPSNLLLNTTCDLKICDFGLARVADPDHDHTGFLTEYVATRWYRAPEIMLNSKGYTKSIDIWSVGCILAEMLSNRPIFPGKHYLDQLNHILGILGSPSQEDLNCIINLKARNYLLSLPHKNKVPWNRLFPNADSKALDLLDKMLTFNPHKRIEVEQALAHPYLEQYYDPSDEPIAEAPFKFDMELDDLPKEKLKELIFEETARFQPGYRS
T3 sequence (Q63844 whole entry, looked up): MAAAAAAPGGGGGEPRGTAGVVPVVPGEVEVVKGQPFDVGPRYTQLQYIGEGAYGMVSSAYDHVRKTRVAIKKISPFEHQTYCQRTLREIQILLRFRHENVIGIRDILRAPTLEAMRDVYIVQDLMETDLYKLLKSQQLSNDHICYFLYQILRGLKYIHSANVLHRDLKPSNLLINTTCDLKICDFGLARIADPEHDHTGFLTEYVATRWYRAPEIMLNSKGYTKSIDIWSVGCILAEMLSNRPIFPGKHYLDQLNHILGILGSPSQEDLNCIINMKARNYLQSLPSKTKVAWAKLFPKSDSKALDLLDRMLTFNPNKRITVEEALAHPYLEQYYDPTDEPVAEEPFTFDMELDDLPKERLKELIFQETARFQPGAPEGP

Structure (SMILES) | inhibition at 3 µM [1] [%] | inhibition at 10 µM [2] [%] | inhibition at 72 h, 30 µM [3] [%] | inhibition at 30 µM [4] [%] | inhibition [6] | inhibition at 1 µM [7] [%] | inhibition [8] [%] | inhibition at 72 h, 10 µM [9] [%] | inhibition [10] [%] | inhibition at 72 h, 3 µM [11] [%] | inhibition at 72 h, 1 µM [13] [%] | Ratio [16] | Ratio [17] | Ratio [18] | Ratio [19] | Ratio [20] | Ratio [21] | Ratio [22] | Ratio [23] | Ratio [24] | further results
O=C1C[C@@H](c2ccc(O)c(O)c2)Oc2cc(O)cc(O)c21 [ERIODICTYOL] | 10.5 | 32.3 | < 8.8 | 46.3 | inactive | 6.5 |  |  |  |  |  |  |  |  |  |  |  |  |  |  | inhibition at 100 µM [5]: 70.5%
O=c1cc(-c2ccc(O)c(O)c2)oc2cc(O)cc(O)c12 [LUTEOLIN] | 13.5 | 38.1 | 23.4 | 76.7 | inactive | 6.2 | 7.1 | 4 | 6.4 | -4.9 | -4.8 |  |  |  |  |  |  |  |  |  | IC50 at 72 h [12]: > 100 µM
OC[C@H]1O[C@@H](Oc2ccc(O)cc2)[C@H](O)[C@@H](O)[C@@H]1O [ARBUTIN] |  | 10.6 |  | 20.4 |  |  |  |  |  |  |  |  |  |  |  |  |  |  |  |  | inhibition at 100 µM [5]: 38.1%; inhibition at 300 µM [14]: 61.5%; inhibition at 1000 µM [15]: 83.7%
COc1cc([C@@H]2Oc3ccc([C@H]4Oc5cc(O)cc(O)c5C(=O)[C@@H]4O)cc3O[C@H]2CO)ccc1O [ISOSILYBIN B] | 37.5 | 58 | < 8.8 | 73.4 | inactive | 18.7 | 4.8 |  | 4.2 |  |  | 1.14 | 0.74 | 1.02 | 0.97 | 1.22 | 1.14 | 0.7 | 0.64 | 0.79 | Ratio [25]: 1.15; Ratio [26]: 1.33; Ratio [27]: 0.87
O=c1c(O)c(-c2ccc(O)c(O)c2)oc2cc(O)cc(O)c12 [QUERCETIN] | 17.1 | 34.3 | 11.9 | 72.5 | inactive | 13.9 | 4.8 | -8.6 | 3.5 | -7.7 | -8.8 |  |  |  |  |  |  |  |  |  | IC50 [28]: 31 µM
COc1cc([C@@H]2Oc3cc([C@H]4Oc5cc(O)cc(O)c5C(=O)[C@@H]4O)ccc3O[C@H]2CO)ccc1O [SILYBIN B] | 3 | 10.2 | 44.4 | 33 |  | -0.2 | 8.4 | 11.8 | 5.7 | -1.4 | -2 | 1.35 | 1.69 | 1.12 | 0.78 | 0.88 | 0.73 | 1.31 | 1.03 | 0.89 | IC50 at 72 h [12]: > 100 µM; Ratio [25]: 0.95; Ratio [26]: 1.27; Ratio [27]: 0.59; inhibition [29]: Active
COc1cc([C@H]2Oc3ccc([C@H]4Oc5cc(O)cc(O)c5C(=O)[C@@H]4O)cc3O[C@@H]2CO)ccc1O [ISOSILYBIN A] | 19.8 | 50.2 | 16 | 72.1 | inactive | 11.7 | 7 | -2.5 | 5.1 | -1.5 | -2.2 | 1.12 | 0.63 | 1.26 | 0.68 | 1.11 | 0.6 | 0.63 | 0.36 | 0.73 | Ratio [25]: 0.97; Ratio [26]: 0.85; Ratio [27]: 0.56
COc1cc([C@H]2Oc3cc([C@H]4Oc5cc(O)cc(O)c5C(=O)[C@@H]4O)ccc3O[C@@H]2CO)ccc1O [SILYBIN A] | 18.8 | 24.4 | 33.8 | 64.7 | inactive | 9.2 | 10.3 | 7.5 | 8.4 | -10.7 | -5.7 | 1.6 | 2 | 0.89 | 0.95 | 0.79 | 1.07 | 1 | 1.6 | 0.92 | inhibition [30]: Active; IC50 at 72 h [12]: > 100 µM; Ratio [25]: 1.12; Ratio [26]: 1.93; Ratio [27]: 2.11
COc1cccc(-c2cc(=O)c3ccccc3o2)c1N |  |  |  |  |  |  |  |  |  |  |  | 1.32 | 1.3 | 1.18 | 1.12 | 0.92 | 1.53 | 1.2 | 1.69 | 1.01 | Ratio [25]: 1.23; Ratio [26]: 1.61; Ratio [27]: 1.79
